{
  "source": "patent US20060078535A1",
  "about": "“Anticancer compounds and methods” (The Regents of the University of Michigan, priority 2004, published 2006)",
  "key": {"[1]": {"tested_on": "neonatal, human fibroblasts", "test": "SU-ECM basement membrane invasion by fibroblasts", "assay_type": "cell-based", "settings": "with or without serum as stated", "from_the_text": "Since, during wound reepithelialization, keratinocytes migrate through the connective tissue of the provisional matrix to “wall off” portions of the wound, as well as through the adjacent stroma, it is not surprising that they are also stimulated to migrate through the matrix of SU-ECM invasion substrates by the PHSRN (SEQ ID NO: 1) sequence. […]\n(§1) Invasion assays were coded and scored blindly by microscopic examination under phase contrast at 200- and 400-fold magnification. Each cell contacting an SU-ECM was scored for its position relative to the exterior or interior surfaces. […] The minimum viability of the cells in each assay was always ascertained at the time of assay by determining the fraction of spread, adherent cells on the bottom of each well scored.\n(§2) An invasion frequency is defined as the fraction of cells in contact with basement membranes which were located in their interiors at the time of assay. […] Invasion frequencies were determined multiple times for each cell type assayed. For each type of cell assayed the mean and standard deviation of the invasion frequencies were calculated. […]"}, "[2]": {"tested_on": "DU-145 prostate cancer cells", "test": "SU-ECM invasion assay, DU-145 prostate cancer cells", "assay_type": "cell-based, human", "settings": "DU-145 cells", "description": "Adult Strongylocentrotus purpuratus sea urchins were obtained from Pacific BioMarine, and their embryos were cultured to the early pluteus stage in artificial sea water at 15° C. SU-ECM were prepared from them by treatment with nonionic detergent and strerilized by dilution in the appropriate media.\nCells were harvested by rinsing in Hanks' balanced salt solution, followed by brief treatment with 0.25% trypsin, 0.02% EDTA, and pelleting and resuspension in the appropriate medium with or without 5% FCS at a density of about 50,000 cells per ml. […]\nas §1, §2"}, "[3]": {"tested_on": "normal, neonatal fibroblasts", "test": "Invasion of gelatin- and antibody-depleted Matrigel by fibroblasts", "assay_type": "cell-based", "settings": "gelatin plus antibody panned Matrigel", "description": "Anti-fibronectin antibody-coated wells: Wells of a 24-well plate were coated with an anti-fibronectin antibody. A mouse monoclonal antibody to human fibronectin was obtained from Oncogene Science (Catalog #CP13). Each well was incubated with 1 ml of antibody at a concentration of 30 μl/ml for 2 hours at room temperature. Each well was then incubated with a solution of 3% BSA in PBS for 2 hours at room temperature. Following the two incubation periods, the wells were thoroughly washed with PBS and stored at −20° C. until use.\nDepleting Matrigel of Fibronectin: Matrigel was panned over eight gelatin-coated wells (as described above in Example 2) to remove most of the fibronectin and its fragments. Thereafter, the Matrigel was placed in the antibody-coated wells to remove any remaining fragments of fibronectin which contain the cell-binding domain but not the gelatin-binding domain. The Matrigel was incubated in an ice bucket on an orbital shaker at 4° C. for 2 hours. Once the Matrigel was depleted, it was collected in Eppendorf tubes. The firbonectin-depleted Matrigel was plated on a 48-well plate (150 μl/well), sterilized under a UV light for 10 minutes and incubated at 37° C. overnight. The Matrigel formed a gel and the following day, cells were added to the wells. […]"}},
  "data": [
    {"substance": "Pro-His-Ser-Arg-Asn (PHSRN)", "values": [
      {"measurement": "fibroblast invasion of SU-ECM basement membranes", "setting": "[1]", "value": "induced with the PHSRN (SEQ ID NO:1) peptide to invade serum-free SU-ECM"},
      {"measurement": "induction of invasion of SU-ECM", "setting": "[2]", "value": "induced to invade the SU-ECM substrate"},
      {"measurement": "fibroblast invasiveness on depleted Matrigel", "setting": "[3]", "value": "invasiveness of the fibroblasts could be induced"}
    ]}
  ]
}
